According to patent publication US20260276660A1, “DETERMINATION OF PROGESTOGENS NON-INVASIVELY IN ANIMALS” (Vetcare Oy, priority 2023, published 2026):

What was measured:
[1] = test system: Monoclonal mouse 5α-PtG antibody; test: Cross-reactivity of monoclonal 5α-PtG antibody (enzyme immunoassay); format: binding; settings: monoclonal mouse 5α-PtG antibody raised against 5α-PtG-KLH
Procedure: Monoclonal mouse 5α-PtG antibody was raised against the 5α-PtG-KLH by Thermo Fisher Scientific (Rockford, TL, USA). The antibodies were screened against the 5α-PtG-BSA. Cross-reactivities for the antibody were: 100% 5α-pregnane-3β,6α,20β-triol glucuronide, 25.4% 5α-pregnane-3β,6α,20β-triol, 0.5% 5β-pregnane-3α,20β-diol and 0.5% 5α-pregnane-3β,6α-diol-20-one.
The 96 well polystyrene, certified MaxiSorp® plates were coated with antigen (5α-PtG-cBSA) by adding 100 μl of 0.25 μg/ml antigen in coating buffer (0.01 M sodium bicarbonate, pH 9.5) in each well. The plates were covered with plastic sticker to prevent evaporation, protected from light and incubated at room temperature over night or several nights at +4° C. The wells were emptied and washed once with 250 μl general washing buffer (e.g. PBS with 0.05% Tween 20 (PBST)), filled with 200 μl blocking buffer (5% sucrose and 0.5% BSA in PBST (w/V)), covered and incubated at +37° C. for a half an hour. The plates were poured empty and dried for three hours at +37° C. Dried plates were covered with plastic sticker, packed in re-sealable plastic bags with silica beads and stored at +4° C. until use.
The hormone assays were performed from the individual samples collected in different oestrus cycle phases and from the urine sample series from 60 bitches. The 5α-PtG-cBSA coated plates were washed once with 250 μl of PBST. The urine samples were diluted 1:20 in assay buffer (0.2% BSA (w/V) in PBS with 0.01% Triton-X) and added in sample wells (50 μl). A dilution series of standard was prepared by diluting the 5α-PtG in assay buffer and added to standard wells (50 μl; 1200-1.6 nM). Assay buffer without additives was added to two wells to determine the maximum binding capacity (B0) and 1900 nM 5α-PtG control was diluted 1:20 in assay buffer and used as a recovery control in all assays. All samples and standards were measured as two replicates. The stock dilution of monoclonal mouse 5α-PtG antibody (1:100) was further diluted 1:100 in assay buffer and added 50 μl in each well. The plate was covered and incubated at +37° C. for half an hour, followed by washing the plate three times. Horseradish peroxidase labeled secondary antibody (goat anti-mouse IgG HRP) was diluted in 1:20 000 in 0.5% BSA (w/V) in PBST, added 100 μl per well and incubated half an hour at +37° C. After washing the plate three times with PBST, TMB in DMSO solution (0.5% 3,3′,5,5′-tetramethylbenzidine in dimethylsulfoxide (w/V; TCIAT1023 Tokyo Chemical Industry)) was diluted 1:50 in substrate buffer (0.1 M sodium acetate trihydrate, 1.5 mM citric acid monohydrate, 0.005% hydrogen peroxide (30%)), added in each well (100 μl) and incubated at room temperature 30 minutes. The reaction was stopped by adding 50 μl 1 M sulfuric acid to each well. The absorbance was measured at 450 nm by microplate reader (Hidex Sense).

hepatic S9 enzymes = test: In vitro metabolism of progesterone by hepatic S9; format: in vitro ADME, dog

SMILES | Cross-reactivities for the antibody [1] | change of 17α-OHP when hepatic S9 were added (hepatic S9 enzymes; after one hour with ovarian S9, hepatic S9 added) | hydroxyprogesterones produced from progesterone (hepatic S9 enzymes; dog, 50 µg/mL)
C[C@@H](O)[C@H]1CC[C@H]2[C@@H]3C[C@H](O[C@@H]4O[C@H](C(=O)O)[C@@H](O)[C@H](O)[C@H]4O)[C@H]4C[C@@H](O)CC[C@]4(C)[C@H]3CC[C@]12C [5α-PtG, 5α-pregnane-3β,6α,20β-triol-6-O-β-D-glucuronide] | 100% |  | 
C[C@H](O)[C@H]1CC[C@H]2[C@@H]3C[C@H](O)[C@H]4C[C@@H](O)CC[C@]4(C)[C@H]3CC[C@]12C [5α-pregnane-3β,6α,20α-triol] | No cross-reactivities |  | 
C[C@@H](O)[C@H]1CC[C@H]2[C@@H]3C[C@H](O)[C@H]4C[C@@H](O)CC[C@]4(C)[C@H]3CC[C@]12C [5α-pregnane-3β,6α,20β-triol] | 25.4% |  | 
CC(=O)[C@H]1CC[C@H]2[C@@H]3C[C@H](O)[C@H]4C[C@@H](O)CC[C@]4(C)[C@H]3CC[C@]12C [5α-pregnane-3β,6α-diol-20-one] | 0.5% |  | 
C[C@@H](O)[C@@]1(O)CCC2C3CC[C@H]4C[C@@H](O)CC[C@]4(C)C3CC[C@@]21C (stereo partly drawn) [5α-pregnane-3β,17α,20β-triol] | No cross-reactivities |  | 
C[C@H](O)[C@@]1(O)CC[C@H]2[C@@H]3CC[C@@H]4C[C@H](O)CC[C@]4(C)[C@H]3CC[C@@]21C [5β-pregnane-3α,17α,20α-triol] | No cross-reactivities |  | 
CC(O)C1(O)CCC2C3CCC4CC(O)CCC4(C)C3CCC21C (stereo not drawn) [5β-pregnane-3α,17α,20β-triol] | No cross-reactivities |  | 
C[C@H](O)[C@H]1CC[C@H]2[C@@H]3CC[C@@H]4C[C@H](O)CC[C@]4(C)[C@H]3CC[C@]12C [5β-pregnane-3α,20α-diol] | No cross-reactivities |  | 
C[C@@H](O)[C@H]1CC[C@H]2[C@@H]3CC[C@@H]4C[C@H](O)CC[C@]4(C)[C@H]3CC[C@]12C [5β-pregnane-3α,20β-diol] | 0.5% |  | 
CC(=O)[C@@]1(O)CC[C@H]2[C@@H]3CCC4=CC(=O)CC[C@]4(C)[C@H]3CC[C@@]21C [17α-OHP, 17α-hydroxyprogesterone] |  | decreased significantly | 
C[C@H](O)[C@H]1CC[C@H]2[C@@H]3CC[C@@H]4C[C@H](O[C@@H]5O[C@H](C(=O)O)[C@@H](O)[C@H](O)[C@H]5O)CC[C@]4(C)[C@H]3CC[C@]12C [PdG, 5β-pregnane-3α,20α-diol-3-glucuronide] | No cross-reactivities |  | 
CC(=O)[C@H]1CC[C@H]2[C@@H]3CCC4=CC(=O)CC[C@]4(C)[C@H]3CC[C@]12C [progesterone, pregn-4-ene-3,20-dione] | No cross-reactivities |  | higher amounts of 6α-, 6β- and 16α-hydroxyprogesterones were detected
